Values after ≈ are worked out from the molar mass of the structure shown. Where two headings read alike, the source gives them in different places. Marks after values point to notes of the source that are not given here.

Broadly, the Papp is the rate of passage across a membrane or cell layer, normalised by area and donor concentration. In general, solubility refers to the concentration that dissolves in the medium under given conditions. Read a low solubility as a poorly soluble substance.

Series [1] concerns Caco-2 cell line. The series is classed as in vitro ADME, human. The following applies: for Permeability Coefficient, Sampatrilat / Effect on sampatrilat permeation across the Caco-2 cell line: Caco-2. The source says: (§1) The Caco-2 cell line is a well-recognized in vitro screening model, which both structurally and functionally represents the small intestinal epithelium. Caco-2 cells are derived from human colon carcinoma cells and differentiate in culture to form intestinal epithelia similar to that found in the small intestine. More specifically, Caco-2 cells form a brush border with normal enzymes, form tight junctions between cells, and acquire the barrier properties of an enterocyte sheet.
(§2) Permeability coefficients are determined as previously reported by Yazdania et.el (Yazdanian M, Glynn, S I, Wright J L, et al. 1998. Correlating partitioning and Caco-2 permeability of structurally diverse small molecular weight compounds. Pharm Res 15:1490-1494). Briefly, drug solutions were prepared in HBSS at a known final concentration. For AP to BL experiments, the solution was placed on the apical side of the cells and samples were taken from basolateral side. In contrast, for BL to AP experiments, the solution was placed on the basolateral side of the cells and samples were taken from apical side. The samples are analyzed by an HPLC. Transport rates (J) are determined by plotting cumulative amounts of drug permeated as a function of time. Apparent permeability coefficients Pcaco-2, are determined according to the equation Pcaco-2=J/ACi where Ci is the initial concentration of the solution in donor chamber and A is the surface area of the filter.
(§3) The original cell line integrity and the effect of excipients on the integrity of cell line were also tested by measuring the flux of ^14C-mannitol.

Series [2] concerns Caco-2 cells. Briefly: Lactate dehydrogenase (LDH) assay after the permeation studies. The format is cell-based, human. As for the experimental part:
In addition, a lactate dehydrogenase (LDH) assay was conducted after the permeation studies to evaluate the cytotoxicity of the absorption enhancers as well as to discover any violation of the integrity of the Caco-2 cells. LDH is a cytosolic enzyme that is not normally secreted outside the cell. However, it leaks into the culture medium upon damage to the cell membranes. In vitro release of LDH from cells provides an accurate measure of cell membrane integrity and cell viability. […] LDH leakage into the apical compartment of the Caco-2 cell system was used to measure the effect, if any, of a given absorption enhancer on the viability of the Caco-2 cells.

Series [3] has as its system Caco-2 cell line. The series is classed as in vitro ADME, human. As to the method: as §2, §3
The test system of series [4] is Caco-2 cell line. The format is in vitro ADME, human.
Excerpt: as §1, §2
The source holds these as a separate data set.

Series [5] in a line: in vitro. The following applies: human, Caco-2.
Description: (§4) The effectiveness of N-methylated glycines as permeability enhancers was evaluated using mannitol as a control.
Series [6] deals with Caco-2 cell line. As to conditions: human.
Description: as §4
A short description of series [7]: Aqueous solubility of sampatrilat. The format is physicochemical.
For series [8] the following is noted: in vivo; tablet dosage form; earlier studies; cited from earlier work.
Where [9] appears, read: sampatrilat study, excipient 1% w/v (none for drug alone).
Where [10] appears, read: hydrochlorothiazide study 1, excipient 1% (none for drug alone).
Where [11] appears, read: hydrochlorothiazide study 5, excipient 5% w/v (none for drug alone).
The mark [12] stands for this setting: mannitol study, first series, enhancer 1% (none for mannitol control).
Where [13] appears, read: hydrochlorothiazide study 2, excipient 1% (none for drug alone).
Setting [14] is: mannitol study, first series, enhancer 0.5%.
Setting [15] is: hydrochlorothiazide study 3, excipient 1% (none for drug alone).

In the case of `NCCCCCC(=O)O` [Amino caproic acid], the “Permeability Coefficient, Sampatrilat” value in series [1] is reported as 0.48 10E−6 cm/s. Moreover, the Toxicity entry in series [2] (setting [9]) was “Yes”. Moreover, the “Permeability coefficient (mannitol)” value in series [3] is given as 1.07 10E−6 cm/s.
Consider `NC(=O)NCCC[C@H](N)C(=O)O` [Citrulline], for which the “Permeability Coefficient, Sampatrilat” value in series [1] is 0.34 10E−6 cm/s. In addition, in series [2] (setting [9]), the Toxicity result is listed as “Yes”. The “Permeability coefficient (mannitol)” value in series [3] is listed as 0.22 10E−6 cm/s.
`O=C1CCCCCCCCCCCCCCO1` [Cyclopentadecanolide, cyclopentadecanolide]: the “Permeability enhancement of hydrochlorothiazide” value (“Permeability enhancement” below) in series [4] is listed as “low or no potency”. The Toxicity entry in series [2] (setting [10]) and in series [2] (setting [11]) was “No” each time.
For `CC1(C)[C@@H](O)CC[C@]2(C)[C@H]3C(=O)C=C4[C@@H]5C[C@@](C)(C(=O)O)CC[C@]5(C)CC[C@@]4(C)[C@]3(C)CC[C@@H]12` [Glycyrrehetinic acid, 18β-glycyrrhetinic acid, reference compound], the “Permeability enhancement” value in series [4] is recorded as “low or no potency”. Besides, the Toxicity result in series [2] (setting [10]) is recorded as “No”.
As for `O=c1cc(CO)occ1O` [Kojic acid], in series [1], the “Permeability Coefficient, Sampatrilat” value is reported as 0.49 10E−6 cm/s. Besides, the Toxicity result in series [2] (setting [9]) was “Yes”. Besides, in series [3], the “Permeability coefficient (mannitol)” value was 1.63 10E−6 cm/s.
Consider `OC[C@@H](O)[C@@H](O)[C@H](O)[C@H](O)CO` [Mannitol, reference compound], for which the Papp at 6.8 uM in series [5] is 1.24 ×10⁻⁶ cm/s. Moreover, the Enhancement ratio in series [6] (Caco-2) worked out at 1.0; in series [6] (Caco-2, 1 %), 1.0. Also, in series [6] (Caco-2, 1 %), the “Permeability coefficient (mannitol)” value is on record as 0.93^a ×10^−6 cm/sec. The Toxicity result in series [2] (setting [12]) was “No”; in series [2] (mannitol study, second series, 1% enhancer and 1% Tween 80 (none for mannitol control)), “No”.
As for `CN(C)CC(=O)O` [N,N-dimethylglycine], the “Permeability enhancement” value in series [4] is “demonstrated as permeability enhancers”. Besides, the Enhancement ratio came out at 9.9 in series [6] (Caco-2, 0.5 %) and 15.9 in series [6] (Caco-2, 1 %). In series [1], the “Effect on sampatrilat permeation across the Caco-2 cell line” value is “significantly increase”. Also, the “Permeability Coefficient, Sampatrilat” value in series [1] is on record as 19.90 10E−6 cm/s. In addition, the “Increase of sampatrilat permeability over the drug alone” value in series [1] (human, Caco-2, 1 % w/v) is 124 fold. Also, the “Cytotoxicity relative to cells treated with Hank's balanced salt solution alone” value in series [2] is “not cytotoxic”. Besides, the Toxicity result in series [2] (setting [10]) was “No”; in series [2] (setting [13]), “No”; in series [2] (hydrochlorothiazide study 4, excipient 1% (none for drug alone)), “No”; in series [2] (setting [14]), “No”; in series [2] (setting [12]) it was “No”; in series [2] (setting [9]) it was “No”. Besides, the “Permeability coefficient (mannitol)” value in series [3] is 12.30 10E−6 cm/s.
For the molecule `O=C(/C=C/C=C/c1ccc2c(c1)OCO2)N1CCCCC1` [Piperine, piperine], the “Permeability enhancement” value in series [4] is recorded as “low or no potency”. The Toxicity result is recorded as “No” in series [2] (setting [13]) and “Yes” in series [2] (setting [11]).
Turning to `CS(=O)(=O)N[C@@H](CCCCN)C(=O)NC[C@H](CC1(C(=O)N[C@@H](Cc2ccc(O)cc2)C(=O)O)CCCC1)C(=O)O` [Sampatrilat], the solubility in series [7] was determined as 1800 µg/mL (≈ 3.08 mM). In addition, in series [8], the Oral bioavailability is 2-5%.
Turning to `O=C(O)CCCCCCCCC(=O)O` [Sebacic acid, sebacic acid], in series [4], the “Permeability coefficient (hydrochlorothiazide)” value is listed as 7.30 ×10^−6, cm/s and the “Permeability enhancement” value is given as “demonstrated as permeability enhancers”. Also, in series [1], the “Effect on sampatrilat permeation across the Caco-2 cell line” value is “significantly increase” and the “Permeability Coefficient, Sampatrilat” value is reported as 2.10 10E−6 cm/s. Moreover, the “Cytotoxicity relative to cells treated with Hank's balanced salt solution alone” value in series [2] is given as “not cytotoxic”. The Toxicity entry in series [2] (setting [15]) was “No”. In addition, in series [2] (setting [9]), the Toxicity entry is recorded as “No”. The “Permeability coefficient (mannitol)” value in series [3] is 7.50 10E−6 cm/s.
Consider `O=C(O)C1=C[C@@H](O)[C@@H](O)[C@H](O)C1` [Shikimic acid, shikimic acid], for which the Toxicity result in series [2] (setting [15]) was “No”; in series [2] (hydrochlorothiazide study 5, excipient 3% w/v) it was “No”; in series [2] (setting [9]), “No”.
`C[N+](C)(C)CC(=O)O` [betaine, trimethyl glycine]: the Toxicity entry in series [2] (setting [12]) is reported as “No”.
For `NCC(=O)O` [glycine], the Enhancement ratio in series [6] (Caco-2, 0.5 %) was 0.9; in series [6] (Caco-2, 1 %), 1.0. Also, the “Permeability coefficient (mannitol)” value in series [6] (Caco-2, 0.5 %) was found to be 8.5e-07 cm/s; in series [6] (Caco-2, 1 %) it was 9.3e-07 cm/s. The Toxicity entry in series [2] (setting [14]) and in series [2] (setting [12]) was “No” in each case.
Consider `CNCC(=O)O` [sarcosine, methyl glycine], for which the Enhancement ratio in series [6] (Caco-2, 0.5 %) turned out to be 1.8; in series [6] (Caco-2, 1 %), 1.0. Moreover, the “Permeability coefficient (mannitol)” value turned out to be 1.71e-06 cm/s in series [6] (Caco-2, 0.5 %) and 8.9e-07 cm/s in series [6] (Caco-2, 1 %). The Toxicity result in series [2] (setting [14]) and in series [2] (setting [12]) was “No” in each case.
Turning to Vitamin E TPGS [Vitamin E TGPS], in series [4], the “Permeability coefficient (hydrochlorothiazide)” value is 0.58 ×10^−6, cm/s and the “Permeability enhancement” value is recorded as “low or no potency”. Further, in series [2] (setting [15]), the Toxicity result is given as “No”.
